Experimental data reported in patent US20100310674A1, “NOVEL COMPOSITION FOR TREATING THE SIDE EFFECTS OF ANTICANCER TREATMENTS” (TROPHOS, priority 2007, published 2010).

How the values were obtained:
[1] = system: tactile allodynia induced by vincristine sulphate; experiment: Tactile allodynia induced by cumulative doses of vincristine sulphate in the rat (paw withdrawal threshold, Dynamic Plantar Aesthesiometer); format: in vivo, rat (WISTAR); conditions: for anti-allodynic effect on first day of administration: day 10
Procedure: The effect of cholest-4-en-3-one oxime on tactile allodynia induced by cumulative doses of vincristine sulphate was evaluated in the rat. Adult male WISTAR rats weighing approximately 250 g were used. Vincristine sulphate was injected by intravenous route at 200 μg/kg on days 1, 4 and 6 (total cumulative dose of 600 μg/kg). The animal's paw withdrawal thresholds to harmless mechanical stimulation were measured in the rats on days 0, 3, 5, 7 and then every day from day 10 to day 14. The cholest-4-en-3-one oxime (10, 30 and 100 mg/kg once daily) was administered by oral route from day 10 to day 14 and the paw withdrawal thresholds were measured 4 hours after administration of the cholest-4-en-3-one oxime. 8 rats were used per tested dose. The mechanical stimulation thresholds at which the animals withdraw their hind paw in response to mechanical stimulations were measured using a Dynamic Plantar Aesthesiometer (Ugo Basile, Italy). Briefly, in a temperature-controlled room (approximately 22° C.) each animal was placed in a transparent cubic box made of Perspex (22×16.5×14 cm) containing a metal mesh floor giving access to the soles of its paws and left for 15 minutes before the test in order for it to acclimatize. A mechanical stimulus was applied to the left hind paw using a stainless filament (0.5 mm in diameter) exerting a force which increases linearly (2.5 g/sec). The force (g) at which the animal withdraws its paw was recorded automatically. Each paw withdrawal threshold was calculated as the average of three consecutive tests carried out at 5-minute intervals by an investigator ignorant of the treatments used on each of the animals. A 50 g limit was imposed in order to prevent tissue damage. A stock solution of cholest-4-en-3-one oxime in corn oil was prepared on the first day of the experiment and administered once daily by oral tube feeding (5 ml/kg). The cholest-4-en-3-one oxime was reduced to a fine powder and mixed with the necessary quantity of excipient in order to obtain concentrations of […], 6 and 20 mg/ml, the mixture is then homogenized by magnetic stirring for at least 10 minutes. Stock solutions were kept at 4° C. between administrations. A statistical analysis was carried out using a two-way ANOVA test followed by Tukey's test in order to compare the effect of the test compound with respect to the excipient.

[2] = system: neuropathies induced by paclitaxel; experiment: Hypersensitivity to pain (mechanical allodynia 4 gVFH, mechanical hyperalgesia 15 gVFH) in rat model of neuropathies induced by paclitaxel; format: in vivo, rat (Sprague-Dawley); conditions: for anti-allodynia (4 gVFH) / anti-hyperalgesia (15 gVFH): AUC D16-D40
Procedure: Adult male Sprague-Dawley rats were used.
Paclitaxel (6 mg/ml in a 50:50 mixture of Cremophor and ethanol) was diluted just before use with a […] sodium chloride solution at a concentration of 2 mg/ml and injected by intraperitoneal route in a volume of 1 ml/kg on days 0, 2, 4 and 6.
Fresh solutions of cholest-4-en-3 one oxime (Sigma) in corn oil were prepared each week at a concentration of 0.6 or 6.0 mg/ml. This solution was given to the animal by oral tube feeding in a volume of 5 ml/kg.
Three groups of 12 animals treated with paclitaxel were formed: • group 1: cholest-4-en-3-one oxime at 3 mg/kg per os, daily for 17 days (day(−1)-day(15), commencing on the day before the first injection of paclitaxel and continuing for 9 days after the last injection of paclitaxel). On the days when the cholest-4-en-3-one oxime and the paclitaxel had to be administered, the cholest-4-en-3-one oxime was given at 9:00 h, and the paclitaxel at 13:00 h; • group 2: as above except that the cholest-4-en-3-one oxime was given at 30 mg/kg; • group 3: as above except that the animals received an identical volume of excipient (corn oil);
The animals were habituated to the test environment for 3 separate days and then 3 sessions per day were organized in order to establish the normal response to a von Frey hairs (VFH) stimulation exerting pressure of 4 g or 15 g (4 gVFH or 15 gVFH). Normal rats rarely withdraw from a stimulation with 4 gVFH; thus, an increase in response post treatment with paclitaxel is a sign of mechanical allodynia. Normal rats withdraw from a stimulation with 15 gVFH 10-20% of the time; thus an increased frequency of response to this stimulus indicates mechanical hyperalgesia.
The animals were placed in cages containing a metal mesh floor giving access to the soles of the animals' paws. Each mechanical stimulus was applied to the middle of the heel of the left hind paw. The presence or absence of withdrawal of the paw was noted. This was repeated 5 times on each hind paw and the animals' responses were summarized as a percentage of responses (5 withdrawals of the paw in response to a stimulation of 15 gVFH corresponded to a score of 50%).
The rats were habituated to the test environment for 3 days. Tests relating to the reference level of sensitivity at 4 g and 15 gVFH were carried out for 3 consecutive days; the average of the last two corresponded to the level of sensitivity before treatment with paclitaxel. The behaviour tests for testing the effects of paclitaxel commenced on day 16 and were repeated on days 19, 22, 25, 28, 31, 35 and 40, by an investigator ignorant of the treatments applied to each of the animals.
The area-under-the-curve values were calculated for each group during the period from D16 to D40 (from the start of the appearance of the pain due to the paclitaxel to the end of the experiment). The AUC values were analyzed with an ANOVA test followed by comparison “in pairs” with the group having received the excipient by Dunnett's t-test.

[3] = system: cold allodynia induced by oxaliplatin; experiment: Cold allodynia (acetone drop) induced by cumulative doses of oxaliplatin in the rat; format: in vivo, rat (Sprague-Dawley)
Procedure: The effect of the cholest-4-en-3-one oxime on cold allodynia induced by cumulative doses of oxaliplatin were evaluated in the rat. Adult male Sprague-Dawley rats weighing approximately 150 g were used. The oxaliplatin was injected by intra-peritoneal route at 3 mg/kg three times a week and for three weeks (total cumulative dose of 27 mg/kg). The paw withdrawal time as well as the amplitude of the animal's response to harmless thermal stimulations using a drop of acetone were measured in the rats before and after treatment by oxaliplatin on days 1 and 18 respectively, and then on each day of treatment with cholest-4-en-3-one oxime, from day 22 to day 25. The cholest-4-en-3-one oxime (1, 10 and 100 mg/kg once daily) was administered by oral route from day 22 to day 25 and the thresholds for withdrawal of the paw were measured 4 hours after administration of the cholest-4-en-3-one oxime. 7 to 9 rats were used per dose tested. For each animal, the reaction times at which the animals withdrew their hind paw following the deposition of the drop of acetone were calculated as the average of six consecutive tests carried out at 5-minute intervals by an investigator ignorant of the treatments applied to each of the animals. A limit of 20 seconds was imposed. The amplitude of the response to the drop of acetone was marked on a scale of 0 to 3: 0 (no response); 1 (rapid withdrawal of the paw); 2 (prolonged withdrawal of the paw); 3 (repeated withdrawal of the paw with licking and/or biting). The score of each of the six tests was totalled. A stock solution of cholest-4-en-3-one oxime in corn oil was prepared on the first day of the experimentation and administered once daily by oral tube feeding (5 ml/kg). The cholest-4-en-3-one oxime was reduced to a fine powder and mixed with the necessary quantity of vehicle in order to obtain concentrations of 0.2, 2 and 20 mg/ml, the mixture is then homogenized by magnetic stirring for at least 10 minutes. Stock solutions were kept at 4° C. between administrations. A statistical analysis was carried out using a two-way ANOVA test followed by Bonferroni's test in order to compare the effect of the test compound with respect to the vehicle.

[4] = 3 mg/kg per os daily for 17 days
[5] = 30 mg/kg per os daily for 17 days

`CC(C)CCC[C@@H](C)[C@H]1CC[C@H]2[C@@H]3CCC4=CC(=NO)CC[C@]4(C)[C@H]3CC[C@]12C` [cholest-4-en-3-one oxime] was tested, and the “anti-allodynic effect on first day of administration” value (from here on “anti-allodynic effect on first day”) ([1]; oral 10 mg/kg, p=0.086) was “no significant anti-allodynic effect”, the “anti-allodynic effect on first day” value ([1]; oral 30 mg/kg, P=0.232) was “no significant anti-allodynic effect” and the “effect on allodynia induced by vincristine, daily treatment” value ([1]; oral 10, 30 and 100 mg/kg once daily, days 11 to 14, P<0.05 in all cases) was “significantly alleviates the allodynia”. For the same compound, the “effect on allodynia induced by vincristine vs excipient” value ([1]; single oral dose 100 mg/kg, day 10, measured 4 hours after administration, P<0.001) was “significantly alleviates the allodynia”, the “development of mechanical allodynia and hyperalgesia” value ([2]; 3 mg/kg and 30 mg/kg per os daily day -1 to day 15, AUC D16 to D40, p<0.01) was “significantly inhibited” and the “anti-allodynia (4 gVFH)” value [2, 4] was 59%. The “anti-hyperalgesia (15 gVFH)” value [2, 4] was 45%, the “anti-allodynia (4 gVFH)” value [2, 5] was 53% and the “anti-hyperalgesia (15 gVFH)” value [2, 5] was 40%. For the same compound, the “anti-allodynic effect on first day” value ([3]; lower doses (1 and 10 mg/kg oral), day 22) was “no significant anti-allodynic effect”, the “anti-allodynic effect after daily treatment” value ([3]; oral 100 mg/kg once daily, days 22 to 25) was “persisted” and the “effect on cold allodynia induced by oxaliplatin from third day of administration” value ([3]; oral 1 and 10 mg/kg once daily, day 24, P<0.05) was “significantly reduced the cold allodynia”. For the same compound, the “effect on allodynia induced by oxaliplatin vs excipient” value ([3]; single oral dose 100 mg/kg, day 22, P<0.05) was “significantly reduced the allodynia”.
